Results reported in article PMC3390344, “Antibacterial Activity and Mechanism of a Scorpion Venom Peptide Derivative In Vitro and In Vivo” (PLoS ONE, 2012).
Ends that are not written are not given here.

System: S. aureus
Assay: S. aureus mouse skin abrasion and infection model
Format: in vivo, mouse (BALB/c)
Experimental: Female BALB/c mice weighing 18–20 g were purchased from the Hubei Research Center of Laboratory Animals. All animal studies were approved by the Institutional Animal Care and Use Committee of Wuhan University.
Kn2-7 or BmKn2 was prepared in gel form in 0.5% hydroxypropylcellulose to a final concentration of 5 mg/mL.
Mice were injected with 150 mg/kg of cyclophosphamide 4 days prior to infection. Subsequently, the mice were injected with 100 mg/kg of cyclophosphamide 1 day prior to infection. After being anesthetized, the dorsal skin of the mice was shaved, and abrasions were produced in a 1×1 cm^2 area using a blade. These abrasion wounds damaged only the stratum corneum and upper layer of the epidermis, but not the dermis. Five minutes later, the wounds were inoculated with 20 µl of S. aureus (10^7–10^8 CFUs) using a micropipettor. A group of mice was killed 4 h after infection to control for the infectious dose. Four hours after infection, the wounds of the other mice were smeared with 20 µl of 5 mg/mL gel or a placebo gel, which was used as a negative control. The treatment lasted for 4 days, with two peptide gel applications being performed daily (morning and evening at 8 h intervals). After 4 days of treatment, the mice were killed, and the wound area of the skin was immediately excised and homogenized. Suitable dilutions of the homogenates were plated on LB plates to determine the number of living bacteria (CFUs).
After the animals were euthanized, biopsy specimens of the excised wound area of the skin were collected and immediately fixed in phosphate-buffered formalin (10%, pH = 7.4). Then, the biopsy specimens were embedded in paraffin and stained with hematoxylin and eosin.
In each experiment, the mean CFU was calculated using log10-transformed data. Based on the averages of three experiments, the mean, range, and coefficient of variation were calculated.

## FIKRIARLLRKIF [Kn2-7]
Female BALB/c mice, cyclophosphamide-pretreated, skin abrasion, 10^7–10^8 CFUs, topical 20 µl of 5 mg/mL gel (0.5% hydroxypropylcellulose) twice daily for 4 days, eight mice per group, versus placebo-treated and untreated mice
  Cutaneous viable counts (colony counts) of S. aureus: clearly lower
Hematoxylin and eosin, topical 5 mg/mL gel twice daily for 4 days, untreated and placebo groups lost nearly all epidermis
  Histological morphology of the skin sections, four days after infection: recovered almost fully
Topical 5 mg/mL gel twice daily for 4 days, placebo blisters became larger
  Appearance of the infected skin, four days after infection: healed
Topical 5 mg/mL gel twice daily, placebo skin wet with blistering
  Appearance of the infected skin, one day after infection: scabbed over
